{"source": "patent US20010000228A1", "about": "“Use of a modified baculovirus containing exogenous nucleic acid for the manufacture of a medicament for delivering said nucleic acid to the hepatocytes” (IMPERIAL COLLEGE INNOVATIONS LIMITED, priority 1997, published 2001)", "origin": "cited, not measured here", "tested_on": "HBV", "conditions": "therapy against HBV", "data": [{"substance": "Interferon α", "values": [{"measurement": "cases in which therapy is effective", "result": "around 30%"}]}]}
